# Results as given in the NIST ThermoML archive (doi:10.1021/je100967k).
# Several values for one entry are separate records, joined by “and”; a condition that tells them apart may be missing. Equal entries are not always repeated. Numbers after ± are expanded uncertainties.
# What was measured:
# [1] = 101 kPa, Liquid; for speed of sound: Pulse-echo method
# [2] = refractive index (Na D-line) (dimensionless); details: 101.33 kPa, Liquid, Standard Abbe refractometry
# [3] = refractive index (Na D-line) (dimensionless); xn = mol fraction of the nth substance listed; details: 101 kPa, Liquid, Standard Abbe refractometry
# [4] = xn = mol fraction of the nth substance listed; details: 101 kPa, Liquid; for speed of sound: Pulse-echo method
SMILES,mass density ([1]; 293.15 K) [kg/m3],viscosity ([1]; 293.15 K) [mPa·s],speed of sound ([1]; 293.15 K) [m/s],mass density ([1]; 303.15 K) [kg/m3],viscosity ([1]; 303.15 K) [mPa·s],speed of sound ([1]; 303.15 K) [m/s],mass density ([1]; 313.15 K) [kg/m3],viscosity ([1]; 313.15 K) [mPa·s],speed of sound ([1]; 313.15 K) [m/s],mass density ([1]; 323.15 K) [kg/m3],viscosity ([1]; 323.15 K) [mPa·s],speed of sound ([1]; 323.15 K) [m/s],refractive index ([2]; 293.15 K),refractive index ([2]; 303.15 K),refractive index ([2]; 313.15 K),refractive index ([2]; 323.15 K),also measured
CCO [ethanol],789.54 ± 0.73,1.116 ± 0.018,1162.3 ± 0.9,780.94 ± 0.75,0.9502 ± 0.016,1128.9 ± 0.9,772.2 ± 0.77,0.7899 ± 0.013,1095.4 ± 0.9,763.29 ± 0.78,0.6304 ± 0.011,1071.9 ± 0.9,1.3616 ± 0.0005,1.3574 ± 0.0005,1.3532 ± 0.0005,1.3493 ± 0.0005,
CN1CCCC1=O [N-methylpyrrolidone] + NCCO,,,,,,,,,,,,,,,,,"refractive index ([3]; 293.15 K, x1 = 1): 1.4691 ± 0.0006; refractive index ([3]; 303.15 K, x1 = 1): 1.4647 ± 0.0006; refractive index ([3]; 313.15 K, x1 = 1): 1.4603 ± 0.0006; refractive index ([3]; 323.15 K, x1 = 1): 1.4559 ± 0.0006; speed of sound ([4]; 293.15 K, x1 = 1): 1565.3 ± 1.4 m/s; mass density ([4]; 293.15 K, x1 = 1): 1032.87 ± 0.55 kg/m3; viscosity ([4]; 293.15 K, x1 = 1): 1.858 ± 0.03 mPa·s; speed of sound ([4]; 303.15 K, x1 = 1): 1526.5 ± 1.3 m/s; mass density ([4]; 303.15 K, x1 = 1): 1023.95 ± 0.53 kg/m3; viscosity ([4]; 303.15 K, x1 = 1): 1.553 ± 0.025 mPa·s; speed of sound ([4]; 313.15 K, x1 = 1): 1487.8 ± 1.3 m/s; mass density ([4]; 313.15 K, x1 = 1): 1015.03 ± 0.52 kg/m3; viscosity ([4]; 313.15 K, x1 = 1): 1.324 ± 0.022 mPa·s; speed of sound ([4]; 323.15 K, x1 = 1): 1450.2 ± 1.3 m/s; mass density ([4]; 323.15 K, x1 = 1): 1006.1 ± 0.5 kg/m3; viscosity ([4]; 323.15 K, x1 = 1): 1.146 ± 0.019 mPa·s"
NCCO [2-aminoethan-1-ol],1016.65 ± 0.52,24.61 ± 0.35,1735.9 ± 1.4,1008.74 ± 0.51,14.96 ± 0.24,1703.7 ± 1.4,1000.77 ± 0.49,9.839 ± 0.15,1671.2 ± 1.4,992.75 ± 0.5,6.902 ± 0.11,1638.8 ± 1.3,1.4525 ± 0.0005,1.4488 ± 0.0005,1.4449 ± 0.0005,1.4417 ± 0.0005,
CN1CCCC1=O [N-methylpyrrolidone],1032.87 ± 0.55,1.858 ± 0.03,1565.3 ± 1.4,1023.95 ± 0.53,1.553 ± 0.025,1526.5 ± 1.3,1015.03 ± 0.52,1.324 ± 0.022,1487.8 ± 1.3,1006.1 ± 0.5,1.146 ± 0.019,1450.2 ± 1.3,1.4706 ± 0.0006 and 1.4691 ± 0.0006,1.4664 ± 0.0006 and 1.4647 ± 0.0006,1.4621 ± 0.0006 and 1.4603 ± 0.0006,1.4576 ± 0.0006 and 1.4559 ± 0.0006,
CCO [ethanol] + CN1CCCC1=O,,,,,,,,,,,,,,,,,"refractive index ([3]; 293.15 K, x2 = 0): 1.3616 ± 0.0005; refractive index ([3]; 303.15 K, x2 = 0): 1.3574 ± 0.0005; refractive index ([3]; 313.15 K, x2 = 0): 1.3532 ± 0.0005; refractive index ([3]; 323.15 K, x2 = 0): 1.3493 ± 0.0005; speed of sound ([4]; 293.15 K, x2 = 0): 1162.3 ± 0.9 m/s; mass density ([4]; 293.15 K, x2 = 0): 789.54 ± 0.73 kg/m3; viscosity ([4]; 293.15 K, x2 = 0): 1.116 ± 0.018 mPa·s; speed of sound ([4]; 303.15 K, x2 = 0): 1128.9 ± 0.9 m/s; mass density ([4]; 303.15 K, x2 = 0): 780.94 ± 0.75 kg/m3; viscosity ([4]; 303.15 K, x2 = 0): 0.9502 ± 0.016 mPa·s; speed of sound ([4]; 313.15 K, x2 = 0): 1095.4 ± 0.9 m/s; mass density ([4]; 313.15 K, x2 = 0): 772.2 ± 0.77 kg/m3; viscosity ([4]; 313.15 K, x2 = 0): 0.7899 ± 0.013 mPa·s; speed of sound ([4]; 323.15 K, x2 = 0): 1071.9 ± 0.9 m/s; mass density ([4]; 323.15 K, x2 = 0): 763.29 ± 0.78 kg/m3; viscosity ([4]; 323.15 K, x2 = 0): 0.6304 ± 0.011 mPa·s"
